Measured values from patent US20170258770A1, “Method for Topically Treating Actinic Keratosis on the Full Face or 250 cm2 on the Chest with Ingenol 3-(3,5-diethylisoxazole-4-carboxylate)” (LEO Laboratories Limited, priority 2014, published 2017).

Experiments:
dermal tumours = test: in vivo studies in mice, effects on dermal tumours; details: compared with ingenol mebutate
Text: The exact mechanism of action of ingenol 3-(3,5-diethylisoxazole-4-carboxylate) continues to be investigated, but it is believed that ingenol 3-(3,5-diethylisoxazole-4-carboxylate) has a dual mechanism of action inducing cell death as well as stimulation of immune response.

actinic keratosis [1] = test: Part 1 dose escalation trial, once daily for two consecutive days, face/chest, actinic keratosis; format: in vivo, human subjects
Text: Local skin reactions (LSRs) occur sometimes in the treated area. Often LSRs are quantified by a scale evaluating the following types of skin reactions: erythema, flaking/scaling, crusting, swelling, vasiculation/postulation, and erosion/ulceration which are categorized into categories 0-4 depending on the severity of the reactions.
In the trial pre-defined grades of LSRs will constitute Dose Limiting Toxicity.
Dose Limiting toxicity (DLT) is defined one or more of the following LSRs • crusting Grade 4 • Erosion/ulceration Grade 4 • vesiculation/postulation Grade 4 or
Two or more of the following five LSRs: • Erythema Grade 4 • Crusting Grade 3 • Swelling grade 4 • Erosion/ulceration Grade 3 • vesiculation/postulation Grade 3 or • other clinically relevant signs or symptoms observed, which the Investigator judges to be counted as a DLT.
Maximum tolerated dose (MTD) is declared as dose level at which less than 4 subjects out of experience a DLT of cohort of 12 subjects.
Part 1 was a dose escalation study conducted with a once daily application of trial medication for two consecutive days and continued until the MTD was identified.
Dose escalation proceeded if the safety and tolerability data of the subject up to day 8 was reviewed and considered satisfactory. The treatment consisted of once daily treatment for 2 consecutive days. Up to 5 different doses may be investigated in cohorts of 1 subject. The number of subjects in each cohort depended on the number of observed DLTs. However, the MTD was always be confirmed in a cohort of 12 subjects.
To be included in the trial, Part 1, the subjects must be at least 18 years of age.
Subjects who qualify for Part 1 of the trial must have 5 to 20 actinic keratosis on the face or chest. To be included in the trial part 2 the subjects must have 5-20 clinically typical, visible and discrete actinic keratosis on the face or chest
Part 1: Trial medication, ingenol 3-(3,5-diethylisoxazole-4-carboxylate) gel, will be applied to the treatment area once daily for two consecutive days until the maximum tolerated dose has been reached for each formulation. Up to five different doses of active compound in gel may be investigated in cohorts 12 subjects. Predefined grades of Local Skin Responses (LSRs) will constitute dose limiting toxicity (DLT). The maximum tolerated dose is defined as the highest dose level at which less than 4 out of 12 subjects experience a Dose limiting toxicity.
The doses will be administered in an escalating manner following review of safety and tolerability data performed by the dose escalation committee. Evaluation of the safety and tolerability data will be performed after Visit 5/day 8. Then subjects will be followed for 8 weeks after first application of investigational product.

actinic keratosis [2] = test: Part 2 open-label trial, 0.018% gel once daily for three consecutive days, full face or 250 cm^2 chest, actinic keratosis; format: in vivo, human subjects; details: 3 consecutive days
Description: Part 2 is a study of the efficacy of the 0.018% dose identified in part 1 in a three day regimen.
In contrast to other similar trials conducted, this trial allows inclusion in the trial of hypertrophic and hyperkeratotic lesion, and separately, the efficacy for these lesions are evaluated.
The outcome for Part 2 is safety and efficacy in a once daily application for three consecutive days on the face/chest. The efficacy in treating of the AK will be measured as reduction in AK count in the treated area of lesions which are not considered hyperkeratotic/hypertrophic.
The reduction in AK count will be performed at week 4 and 8 no matter the type of lesion. Also complete clearance of AKs in the treated area which are not considered hyperkeratotic/hypertrophic at week 8 will be measured.
The trial medication applied is preferably a gel. The gel formulation comprises: isopropyl alcohol, hydroxyethyl cellulose, benzyl alcohol, citric acid monohydrate, sodium citrate dehydrate and water and active compound in a 0.018% concentration. For this particular trial, the dosing is two unit dose tubes daily, each containing 0.67 g.
To qualify for part 2 of the trial, the subjects must have 5-20 clinically visible and discrete AKs within full face or 250 cm^2 area on the chest. In addition to the requirement of 5-20 clinically typical, visible and discrete AKs within the selected treatment area, subjects may also have visible and discrete hyperkeratotic/hypertrophic lesions in this area. The subjects will be treated with a dose of 0.018% as a once daily three consecutive days treatment and followed for 8 weeks.
The trial consists of an initial part, where 18 subjects will be treated on face/chest. […] As this is a safety trial, it is considered justified to conduct this clinical trial as an open-label, uncontrolled trial. An early safety and tolerability evaluation will be performed following the 3 days treatment. If safety and tolerability is found acceptable by the Early Data Review Committee, and additional 44 subjects will be enrolled in order to expand safety observations and obtain an estimate of treatment efficacy.
The patients are scheduled for 7 visits: • Visit 1: within 21 days prior to day 1 • Visit 2: day 1 (application of trial medication) • Visit 3: day 4 (application of trial medication) • Visit 4: day 8 (±2 day) • Visit 5: week 2 (±2 day) • Visit 6: week 4 (±4 day) • Visit 7: week 8 (±7 day)
LSRs are evaluated at all visits following visit 1.
LSRs are evaluated at all visits following visit 1. AK lesion counts are performed on Visit 2, 6 and 7.
At Baseline (Day 1) and Visit 7 (Week 8), the investigator will make a clinical (visual and tactile) assessment of the extent of photo-damage in the treatment area with respect to 1) fine wrinkling, 2) coarse wrinkling, 3) mottled pigmentation, 4) roughness, 5) sallowness, 6) skin laxity, and 7) telangiectasia. Severity for each of these characteristics will be on a 5-point scale: None (0), Mild (1), Moderate (2), Severe (3), Extreme (4).
At Visit 7 (Week 8) the Investigator will make an overall clinical (visual and tactile) assessment of the subject's photo-damage change from baseline in the treatment area (including an integrated assessment of fine wrinkling, coarse wrinkling, mottled pigmentation, roughness, sallowness, skin laxity, and telangiectasia based on the subject's appearance at the baseline visit).
The scoring will be on a 7-point symmetric scale: Marked improvement (+3), Moderate improvement (+2), Minor improvement (+1), No change (0), Minor worsening (−1), Moderate worsening (−2), Marked worsening (−3).
At Visit 7 (Week 8), the subjects will complete a self-assessment questionnaire evaluating the change in the 1) overall appearance of the skin and 2) overall feel of the skin after treatment. The scoring will be on a 5-point scale: Much worsened, Somewhat worsened, No change, somewhat improved, much improved. […]

[3] = at 0.018% dose, two day regimen

Question: What does the source list for `CCc1noc(CC)c1C(=O)O[C@H]1C(C)=C[C@]23C(=O)[C@@H](C=C(CO)[C@@H](O)[C@]12O)[C@H]1[C@@H](C[C@H]3C)C1(C)C` [ingenol 3-(3,5-diethylisoxazole-4-carboxylate)]?
Answer: efficacy in eliminating dermal tumours (dermal tumours): more efficacious than ingenol mebutate; application site adverse events (actinic keratosis [1]; [3]): minimal; local skin reactions (LSRs) (actinic keratosis [1]; [3]): mild; maximum tolerated dose (MTD) (actinic keratosis [1]; gel, once daily for 2 consecutive days, face/chest, MTD = highest dose with DLT in less than 4 of 12 subjects): 0.018%; tolerability with respect to LSRs and application site reaction (actinic keratosis [1]; selected dose 0.018%, two days dosing regimen): well tolerated; cosmetic outcome of the treatment (actinic keratosis [2]): good; side-effects (actinic keratosis [2]): acceptable; subjects reporting improvement in appearance and feel (actinic keratosis [2]; cosmetic outcome self-assessment): more than 90%; patients with photo damage improved (actinic keratosis [2]; investigator assessment, fraction of patients): two-thirds; time at which side-effects maximize (actinic keratosis [2]; rapid decline thereafter): 4 days; complete clearance (actinic keratosis [2]; week 4, 63 patients): 37%; reduction in AK count (actinic keratosis [2]; week 4, 63 patients): 81%; complete clearance (actinic keratosis [2]; week 8 (the same as week 4)): 37%; reduction in AK count (actinic keratosis [2]; week 8 (the same as week 4)): 81%
